Paper PMC9609070 (ACS Omega, 2022)
Where two headings read alike, the source gives them in different places.

Assays:
[1] = Apparent thermodynamic functions of dissolution; type: physicochemical; conditions: Thm=303.0 K
[2] = Apparent thermodynamic functions of mixing; type: physicochemical; conditions: Thm=303.0 K
[3] = Hildebrand solubility parameter of meloxicam; type: physicochemical; conditions: expected from the solubility maximum in neat NMP; T=298.15 K
Solid-phase analyses = type: physicochemical; conditions: after saturation in neat water, x1=0.50 mixture and neat NMP
[4] = neat water, x1=0.000, cited from earlier work
[5] = neat water, x1=0.000; Thm=303.0 K; cited from earlier work
[6] = cited from earlier work
[7] = neat water, x1=0.000, cited from earlier work; remark: listed apart in the source
[8] = calculated by Fedors' groups contribution method; cited from earlier work

TΔsolnS° ([1]; NMP+water, x1=0.100): 0.52 kJ·mol^–1
ΔsolnG° (apparent Gibbs energy of dissolution) ([1]; NMP+water, x1=0.100): 27.40 kJ·mol^–1
ΔsolnH° (apparent enthalpy of dissolution) ([1]; NMP+water, x1=0.100): 27.92 kJ·mol^–1
ΔsolnS° (apparent entropy of dissolution) ([1]; NMP+water, x1=0.100): 1.71 J·mol^–1·K^–1
TΔsolnS° ([1]; NMP+water, x1=0.200): 2.55 kJ·mol^–1
ΔsolnG° (apparent Gibbs energy of dissolution) ([1]; NMP+water, x1=0.200): 22.34 kJ·mol^–1
ΔsolnH° (apparent enthalpy of dissolution) ([1]; NMP+water, x1=0.200): 24.89 kJ·mol^–1
ΔsolnS° (apparent entropy of dissolution) ([1]; NMP+water, x1=0.200): 8.41 J·mol^–1·K^–1
TΔsolnS° ([1]; NMP+water, x1=0.300): 3.08 kJ·mol^–1
ΔsolnG° (apparent Gibbs energy of dissolution) ([1]; NMP+water, x1=0.300): 18.38 kJ·mol^–1
ΔsolnH° (apparent enthalpy of dissolution) ([1]; NMP+water, x1=0.300): 21.46 kJ·mol^–1
ΔsolnS° (apparent entropy of dissolution) ([1]; NMP+water, x1=0.300): 10.18 J·mol^–1·K^–1
TΔsolnS° ([1]; NMP+water, x1=0.400): 2.09 kJ·mol^–1
ΔsolnG° (apparent Gibbs energy of dissolution) ([1]; NMP+water, x1=0.400): 15.31 kJ·mol^–1
ΔsolnH° (apparent enthalpy of dissolution) ([1]; NMP+water, x1=0.400): 17.40 kJ·mol^–1
ΔsolnS° (apparent entropy of dissolution) ([1]; NMP+water, x1=0.400): 6.89 J·mol^–1·K^–1
TΔsolnS° ([1]; NMP+water, x1=0.500): 1.77 kJ·mol^–1
ΔsolnG° (apparent Gibbs energy of dissolution) ([1]; NMP+water, x1=0.500): 13.00 kJ·mol^–1
ΔsolnH° (apparent enthalpy of dissolution) ([1]; NMP+water, x1=0.500): 14.78 kJ·mol^–1
ΔsolnS° (apparent entropy of dissolution) ([1]; NMP+water, x1=0.500): 5.85 J·mol^–1·K^–1
TΔsolnS° ([1]; NMP+water, x1=0.600): 6.45 kJ·mol^–1
ΔsolnG° (apparent Gibbs energy of dissolution) ([1]; NMP+water, x1=0.600): 11.42 kJ·mol^–1
ΔsolnH° (apparent enthalpy of dissolution) ([1]; NMP+water, x1=0.600): 17.87 kJ·mol^–1
ΔsolnS° (apparent entropy of dissolution) ([1]; NMP+water, x1=0.600): 21.28 J·mol^–1·K^–1
TΔsolnS° ([1]; NMP+water, x1=0.700): 15.75 kJ·mol^–1
ΔsolnG° (apparent Gibbs energy of dissolution) ([1]; NMP+water, x1=0.700): 10.45 kJ·mol^–1
ΔsolnH° (apparent enthalpy of dissolution) ([1]; NMP+water, x1=0.700): 26.20 kJ·mol^–1
ΔsolnS° (apparent entropy of dissolution) ([1]; NMP+water, x1=0.700): 51.98 J·mol^–1·K^–1
TΔsolnS° ([1]; NMP+water, x1=0.800): 14.58 kJ·mol^–1
ΔsolnG° (apparent Gibbs energy of dissolution) ([1]; NMP+water, x1=0.800): 9.52 kJ·mol^–1
ΔsolnH° (apparent enthalpy of dissolution) ([1]; NMP+water, x1=0.800): 24.10 kJ·mol^–1
ΔsolnS° (apparent entropy of dissolution) ([1]; NMP+water, x1=0.800): 48.13 J·mol^–1·K^–1
TΔsolnS° ([1]; NMP+water, x1=0.900): 10.89 kJ·mol^–1
ΔsolnG° (apparent Gibbs energy of dissolution) ([1]; NMP+water, x1=0.900): 8.60 kJ·mol^–1
ΔsolnH° (apparent enthalpy of dissolution) ([1]; NMP+water, x1=0.900): 19.49 kJ·mol^–1
ΔsolnS° (apparent entropy of dissolution) ([1]; NMP+water, x1=0.900): 35.93 J·mol^–1·K^–1
TΔsolnS° ([1]; neat NMP, x1=1.000): 13.06 kJ·mol^–1
ΔsolnG° (apparent Gibbs energy of dissolution) ([1]; neat NMP, x1=1.000): 7.99 kJ·mol^–1
ΔsolnH° (apparent enthalpy of dissolution) ([1]; neat NMP, x1=1.000): 21.05 kJ·mol^–1
ΔsolnS° (apparent entropy of dissolution) ([1]; neat NMP, x1=1.000): 43.10 J·mol^–1·K^–1
ΔmixG° (apparent Gibbs energy of mixing) ([2]; NMP+water, x1=0.100): 13.24 kJ·mol^–1
ΔmixH° (apparent enthalpy of mixing) ([2]; NMP+water, x1=0.100): 3.14 kJ·mol^–1
ΔmixS° (apparent entropy of mixing) ([2]; NMP+water, x1=0.100): –33.32 J·mol^–1·K^–1
ΔmixG° (apparent Gibbs energy of mixing) ([2]; NMP+water, x1=0.200): 8.18 kJ·mol^–1
ΔmixH° (apparent enthalpy of mixing) ([2]; NMP+water, x1=0.200): 0.11 kJ·mol^–1
ΔmixS° (apparent entropy of mixing) ([2]; NMP+water, x1=0.200): –26.62 J·mol^–1·K^–1
ΔmixG° (apparent Gibbs energy of mixing) ([2]; NMP+water, x1=0.300): 4.22 kJ·mol^–1
ΔmixH° (apparent enthalpy of mixing) ([2]; NMP+water, x1=0.300): –3.31 kJ·mol^–1
ΔmixS° (apparent entropy of mixing) ([2]; NMP+water, x1=0.300): –24.85 J·mol^–1·K^–1
ΔmixG° (apparent Gibbs energy of mixing) ([2]; NMP+water, x1=0.400): 1.15 kJ·mol^–1
ΔmixH° (apparent enthalpy of mixing) ([2]; NMP+water, x1=0.400): –7.38 kJ·mol^–1
ΔmixS° (apparent entropy of mixing) ([2]; NMP+water, x1=0.400): –28.14 J·mol^–1·K^–1
ΔmixG° (apparent Gibbs energy of mixing) ([2]; NMP+water, x1=0.500): –1.16 kJ·mol^–1
ΔmixH° (apparent enthalpy of mixing) ([2]; NMP+water, x1=0.500): –10.00 kJ·mol^–1
ΔmixS° (apparent entropy of mixing) ([2]; NMP+water, x1=0.500): –29.18 J·mol^–1·K^–1
ΔmixG° (apparent Gibbs energy of mixing) ([2]; NMP+water, x1=0.600): –2.74 kJ·mol^–1
ΔmixH° (apparent enthalpy of mixing) ([2]; NMP+water, x1=0.600): –6.91 kJ·mol^–1
ΔmixS° (apparent entropy of mixing) ([2]; NMP+water, x1=0.600): –13.74 J·mol^–1·K^–1
ΔmixG° (apparent Gibbs energy of mixing) ([2]; NMP+water, x1=0.700): –3.72 kJ·mol^–1
ΔmixH° (apparent enthalpy of mixing) ([2]; NMP+water, x1=0.700): 1.42 kJ·mol^–1
ΔmixS° (apparent entropy of mixing) ([2]; NMP+water, x1=0.700): 16.95 J·mol^–1·K^–1
ΔmixG° (apparent Gibbs energy of mixing) ([2]; NMP+water, x1=0.800): –4.65 kJ·mol^–1
ΔmixH° (apparent enthalpy of mixing) ([2]; NMP+water, x1=0.800): –0.68 kJ·mol^–1
ΔmixS° (apparent entropy of mixing) ([2]; NMP+water, x1=0.800): 13.10 J·mol^–1·K^–1
ΔmixG° (apparent Gibbs energy of mixing) ([2]; NMP+water, x1=0.900): –5.56 kJ·mol^–1
ΔmixH° (apparent enthalpy of mixing) ([2]; NMP+water, x1=0.900): –5.29 kJ·mol^–1
ΔmixS° (apparent entropy of mixing) ([2]; NMP+water, x1=0.900): 0.90 J·mol^–1·K^–1
ΔmixG° (apparent Gibbs energy of mixing) ([2]; neat NMP, x1=1.000): –6.17 kJ·mol^–1
ΔmixH° (apparent enthalpy of mixing) ([2]; neat NMP, x1=1.000): –3.73 kJ·mol^–1
ΔmixS° (apparent entropy of mixing) ([2]; neat NMP, x1=1.000): 8.07 J·mol^–1·K^–1
ΔmixG° (apparent Gibbs energy of mixing) ([2]; neat water, x1=0.000): 20.19 kJ·mol^–1
ΔmixH° (apparent enthalpy of mixing) ([2]; neat water, x1=0.000): –17.09 kJ·mol^–1
ΔmixS° (apparent entropy of mixing) ([2]; neat water, x1=0.000): –123.02 J·mol^–1·K^–1
Hildebrand solubility parameter δ3, solubility-based [3]: lower than 23.6 MPa^1/2
SMILES: Cc1cnc(NC(=O)C2=C(O)c3ccccc3S(=O)(=O)N2C)s1 [Meloxicam, 4-hydroxy-2-methyl-N-(5-methyl-2-thiazolyl)-2H-1,2-benzothiazine-3-carboxamide-1,1-dioxide]
Crystal form after saturation (XRD, FTIR) (Solid-phase analyses): did not suffer crystal polymorphic transitions or solvate formation
Activity coefficient (γ3) ([4]; T=293.15 K): 2396
Activity coefficient (γ3) ([4]; T=298.15 K): 2708
Activity coefficient (γ3) ([4]; T=303.15 K): 3055
Activity coefficient (γ3) ([4]; T=308.15 K): 3376
Activity coefficient (γ3) ([4]; T=313.15 K): 3755
TΔsolnS° [5]: –26.66 kJ·mol^–1
ΔsolnG° (apparent Gibbs energy of dissolution) [5]: 34.35 kJ·mol^–1
ΔsolnH° (apparent enthalpy of dissolution) [5]: 7.69 kJ·mol^–1
ΔsolnS° (apparent entropy of dissolution) [5]: –87.99 J·mol^–1·K^–1
Ideal mole fraction solubility (x3^id) ([6]; T=293.15 K): 2.607 × 10^–3 mole fraction
Ideal mole fraction solubility (x3^id) ([6]; T=298.15 K): 3.079 × 10^–3 mole fraction
Ideal mole fraction solubility (x3^id) ([6]; T=303.15 K): 3.627 × 10^–3 mole fraction
Ideal mole fraction solubility (x3^id) ([6]; T=308.15 K): 4.260 × 10^–3 mole fraction
Ideal mole fraction solubility (x3^id) ([6]; T=313.15 K): 4.991 × 10^–3 mole fraction
TΔsolnS° ([6]; ideal, Thm=303.0 K): 10.61 kJ·mol^–1
ΔsolnG° (apparent Gibbs energy of dissolution) ([6]; ideal, Thm=303.0 K): 14.16 kJ·mol^–1
ΔsolnH° (apparent enthalpy of dissolution) ([6]; ideal, Thm=303.0 K): 24.78 kJ·mol^–1
ΔsolnS° (apparent entropy of dissolution) ([6]; ideal, Thm=303.0 K): 35.03 J·mol^–1·K^–1
Experimental molar solubility (C) ([7]; T=293.15 K): 6.027 × 10^–5 mol·dm^–3
Experimental mole fraction solubility (x3) ([7]; T=293.15 K): 1.088 × 10^–6 mole fraction
Experimental molar solubility (C) ([7]; T=298.15 K): 6.290 × 10^–5 mol·dm^–3
Experimental mole fraction solubility (x3) ([7]; T=298.15 K): 1.137 × 10^–6 mole fraction
Experimental molar solubility (C) ([7]; T=303.15 K): 6.557 × 10^–5 mol·dm^–3
Experimental mole fraction solubility (x3) ([7]; T=303.15 K): 1.187 × 10^–6 mole fraction
Experimental molar solubility (C) ([7]; T=308.15 K): 6.962 × 10^–5 mol·dm^–3
Experimental mole fraction solubility (x3) ([7]; T=308.15 K): 1.262 × 10^–6 mole fraction
Experimental mole fraction solubility (x3) ([7]; T=313.15 K): 1.329 × 10^–6 mole fraction
Hildebrand solubility parameter δ3 [8]: 32.1 MPa^1/2
